Details: biotinylated peptide in TBST with 1 mg/mL BSA, 1 hour at room temperature, streptavidin-HRP/TMB, A450; MB50 calculated from Scatchard plots
Procedure: The MB50 provides an indication of the strength of the binding interaction or affinity of the components of the complex.
Then, the streptavidin-horseradish peroxidase (HRP) conjugate (Pierce Chemical Co., Rockford, Ill.) was added to each well (1.0 μg per well), and incubated for 1 h at room temperature, followed by 6 times of washes with TBST. […] The results were plotted as A450 versus the concentration of peptide using GraphPad Prism 4.0 (GraphPad Software, Inc., San Diego, Calif.).

Substance	MB50 [nM]
RRSMSLRMLTRGIKWSAMAYLASRWIL-K(biotin)-NH2 [CXH-W3]	72
SLRRRWTTFGKILRRWTLPTAMLLVMM-K(biotin)-NH2 [CXH-W4]	21
